Assays:
[1] = target: human recombinant D3 receptor (Homo sapiens (Human), UniProt P35462); test: Test of binding inhibition for dopamine D3 receptor; conditions: Jump-In HEK cell membranes, 2 nM [3H]-Methylspiperone, 120 min at 25° C.; read-out: hD3_Ki
Procedure: Test Example 1: Test of Binding Inhibition for Dopamine D3 Receptor
(§1) (Experimental Conditions)
Cell membranes: Jump-In HEK cell membranes expressing human recombinant D3 receptor (4 μg/well)
(§2) Buffer solution: 50 mM Tris-HCl (35409-45, Nacalai Tesque) (pH 7.4) containing 120 mM NaCl (31320-05, Nacalai Tesque), 1 mM MgCl2.6H2O (20909-55, Nacalai Tesque), 5 mM KCl (28514-75, Nacalai Tesque) and 2 mM CaCl2 (067-31, NAKARAI CHEMICALS, LTD.)
Radioligand: (final concentration) 2 nM [^3H]-Methylspiperone ([^3H—N-methyl-]-Methylspiperone, NET-856, 83.8 Ci/mmol, PerkinElmer)
Non-specific ligand: (final concentration) 10 μM Butaclamol [(+)-Butaclamol Hydrochloride, D033, Sigma]
(§3) SPA beads solution: SPA beads [WGA PVT SPA Scintillation Beads, RPNQ0001 (500 mg), RPNQ0060 (2 g), PerkinElmer] (0.2 mg/well)
(§4) Incubation time and temperature: 120 min at 25° C.
(§5) Butaclamol or the compounds of the present invention were weighed and DMSO was added to make a 10 mM solution. This solution was diluted to each concentration.
[^3H]-Methylspiperone was weighed and the buffer solution was added to make a 6 nM solution.
(§6) SPA beads were weighed and stirred in water to make a 50 mg/mL solution. Using this solution, a mixture with the cell membranes was prepared.
(§7) 225 nL of the solutions of the non-specific ligand or the compounds of the present invention at each concentration (in case of vehicle, final concentration 0.3% DMSO) were added in each well of a 384-well white/clear bottom microplate (3706, Corning). Jump-In HEK Cell membranes (final reaction amount: 4 μg protein/well), the SPA beads solution (final reaction amount: 0.2 mg/well) and the buffer solution were mixed and the mixed solution was left still for 1 hour or more at 4° C. Then, 50 μL of the mixture was added to each well of the plate. In addition, 25 μL of 6 nM [^3H]-Methylspiperone (final concentration: 2 nM) was added to each well. The plate was sealed by putting TopSeal-A 96/384 well (6050185, PerkinElmer, Inc.) on the top of the plate, mixed using stirring deaerator (Well Tornado, FK-62, Sakaki-elc.) and incubated for 120 min at 25° C. After incubation, the radioactivity of [^3H]-Methylspiperone which was bonded to D3 receptor was determined by liquid scintillation counter (1450 Microbeta, PerkinElmer) in each well. Non-specific binding was calculated based on the radioactivity of [^3H]-Methylspiperone in the presence of 10 μM non-labeled Butaclamol. The total binding was calculated using the radioactivity of [^3H]-Methylspiperone in the absence of the compounds of the present invention (vehicle). The Ki values were calculated from dose-response curves.
(§8) Binding activities of the compounds of the present invention were calculated from the following Binding Inhibition Rate (%): Inhibition Rate(%)=[1−(c−a)/(b−a)]×100 • a: Average cpm of non-specific binding • b: Average cpm of total binding • c: Cpm in the presence of each test compound

[2] = target: human recombinant D2 receptor (Homo sapiens (Human), UniProt P14416); test: Test of binding inhibition for dopamine D2 receptor; conditions: Jump-In HEK cell membranes, 1.2 nM [3H]-Methylspiperone, 120 min at 25° C.; read-out: hD2_Ki
Chain of human recombinant D2 receptor (P14416 whole entry): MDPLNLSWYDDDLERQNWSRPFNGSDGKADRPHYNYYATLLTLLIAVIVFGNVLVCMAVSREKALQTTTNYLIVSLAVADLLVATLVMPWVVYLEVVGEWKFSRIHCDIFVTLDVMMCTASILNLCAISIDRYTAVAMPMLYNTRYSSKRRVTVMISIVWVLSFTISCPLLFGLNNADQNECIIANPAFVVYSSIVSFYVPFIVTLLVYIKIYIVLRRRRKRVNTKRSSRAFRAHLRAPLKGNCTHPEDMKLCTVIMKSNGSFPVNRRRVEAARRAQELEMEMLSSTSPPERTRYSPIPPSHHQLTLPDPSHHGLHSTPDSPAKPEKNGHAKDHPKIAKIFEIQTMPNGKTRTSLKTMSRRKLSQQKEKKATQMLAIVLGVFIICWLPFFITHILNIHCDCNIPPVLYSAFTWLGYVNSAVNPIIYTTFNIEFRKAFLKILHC
Procedure: Test Example 2: Test of Binding Inhibition for Dopamine D2 Receptor
as §1
Cell membranes: Jump-In HEK cell membranes expressing human recombinant D2 receptor (2 μg/well)
as §2
Radioligand: (final concentration) 1.2 nM [^3H]-Methylspiperone ([^3H—N-methyl-]-Methylspiperone, NET-856, 83.8 Ci/mmol, PerkinElmer)
Non-specific ligand: (final concentration) 10 μM Butaclamol [(+)-Butaclamol Hydrochloride, D033; Sigma]
as §3, §4, §5
[^3H]-Methylspiperone was weighed and the buffer solution was added to make a 3.6 nM solution.
as §6
as §7, with “amount: 2” for “amount: 4”, “SPA bead” for “SPA beads”, “of 3.6” for “of 6”, “concentration: 1.2” for “concentration: 2”, “(6050185, PerkinElmer)” for “(6050185, PerkinElmer, Inc.)”, “to D2” for “to D3”
as §8

Chain of human recombinant D3 receptor (P35462 whole entry): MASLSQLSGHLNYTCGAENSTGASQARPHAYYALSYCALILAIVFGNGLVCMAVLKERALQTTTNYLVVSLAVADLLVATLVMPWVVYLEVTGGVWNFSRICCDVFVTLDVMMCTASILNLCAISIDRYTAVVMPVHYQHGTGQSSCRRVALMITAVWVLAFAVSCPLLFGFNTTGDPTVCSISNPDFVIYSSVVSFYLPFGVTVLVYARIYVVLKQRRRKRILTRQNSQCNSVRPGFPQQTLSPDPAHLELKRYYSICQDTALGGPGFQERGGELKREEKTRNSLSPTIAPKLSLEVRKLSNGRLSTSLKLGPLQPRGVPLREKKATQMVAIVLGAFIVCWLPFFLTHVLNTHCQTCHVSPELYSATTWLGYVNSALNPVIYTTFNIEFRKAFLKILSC

In the case of `O=C(N[C@H]1CC[C@H](CCN2CCC(c3nccn3-c3ccccn3)CC2)CC1)c1cccc2ncccc12` [Compound I-001], the Ki [1] is reported as 3.3 nM and the Ki [2] is reported as > 1700 nM.

`O=C(N[C@H]1CC[C@H](CCN2CCC(c3nocc3-c3ccccc3)CC2)CC1)c1cccc2ncccc12` [Compound I-002] gave a Ki [1] of 0.12 nM and a Ki [2] of 32 nM.

`O=C(N[C@H]1CC[C@H](CCN2CCC(c3nocc3-c3cccc(F)c3)CC2)CC1)c1cccc2ncccc12` [Compound I-003] showed a Ki [1] of 0.093 nM and a Ki [2] of 36 nM.

`O=C(N[C@H]1CC[C@H](CCN2CCC(c3nocc3C3CC3)CC2)CC1)c1cccc2ncccc12` [Compound I-004] gave a Ki [1] of 0.6 nM and a Ki [2] of 160 nM.

In the case of `O=C(N[C@H]1CC[C@H](CCN2CCC(c3conc3-c3ccccc3)CC2)CC1)c1cccc2ncccc12` [Compound I-005], the Ki [1] is reported as 1.2 nM and the Ki [2] is reported as 860 nM.

Molecule `O=C(N[C@H]1CC[C@H](CCN2CCC(c3ccnn3-c3ccccc3)CC2)CC1)c1cccc2ncccc12` [Compound I-006] has a Ki [1] of 4 nM and a Ki [2] of 1100 nM.

For `O=C(N[C@H]1CC[C@H](CCN2CCC(n3nccc3-c3ccccc3)CC2)CC1)c1cccc2ncccc12` [Compound I-007], the Ki [1] was 2.7 nM and the Ki [2] was > 1800 nM.

`Cc1cc(CC(=O)N[C@H]2CC[C@H](CCN3CCC(c4nocc4C(C)(F)F)CC3)CC2)on1` [Compound I-008] gave a Ki [1] of 0.69 nM and a Ki [2] of 350 nM.

For `Cc1ncc(CC(=O)N[C@H]2CC[C@H](CCN3CCC(c4noc(C)c4C(C)(F)F)CC3)CC2)s1` [Compound I-009], the Ki [1] was 1.9 nM and the Ki [2] was 330 nM.

`Cc1ncc(CC(=O)N[C@H]2CC[C@H](CCN3CCC(c4nocc4C(C)(F)F)CC3)CC2)s1` [Compound I-010] was tested, and the Ki [1] was 0.65 nM and the Ki [2] was 230 nM.

`Cc1ncc(CC(=O)N[C@H]2CC[C@H](CCN3CCC(c4nocc4CC4CC4)CC3)CC2)s1` [Compound I-011] gave a Ki [1] of 0.63 nM and a Ki [2] of 380 nM.

In the case of `Cc1ncc(CC(=O)N[C@H]2CC[C@H](CCN3CCC(c4nscc4C(C)(F)F)CC3)CC2)s1` [Compound I-012], the Ki [1] is reported as 1.9 nM and the Ki [2] is reported as 460 nM.

`Cc1ncc(CC(=O)N[C@H]2CC[C@H](CCN3CCC(c4nocc4C4CC4)CC3)CC2)s1` [Compound I-013] was tested, and the Ki [1] was 0.95 nM and the Ki [2] was 230 nM.

With `Cc1ncc(CC(=O)N[C@H]2CC[C@H](CCN3CCN(c4nocc4C(C)(F)F)CC3)CC2)s1` [Compound I-014] the Ki [1] was 0.2 nM and the Ki [2] was 88 nM.

`CCC(F)(F)c1conc1C1CCN(CC[C@H]2CC[C@H](NC(=O)Cc3nnc(C)s3)CC2)CC1` [Compound I-015] showed a Ki [1] of 0.13 nM and a Ki [2] of 67 nM.

`CCC(F)(F)c1conc1C1CCN(CC[C@H]2CC[C@H](NC(=O)c3cccc4nn(C)cc34)CC2)CC1` [Compound I-016] showed a Ki [1] of 0.085 nM and a Ki [2] of 33 nM.

`Cn1cc2c(C(=O)N[C@H]3CC[C@H](CCN4CCN(c5nocc5C(C)(F)F)CC4)CC3)cccc2n1` [Compound I-017] gave a Ki [1] of 0.21 nM and a Ki [2] of 52 nM.

In the case of `Cn1cc2c(C(=O)N[C@H]3CC[C@H](CCN4CCC(c5nocc5C(F)(F)C5CC5)CC4)CC3)cccc2n1` [Compound I-018], the Ki [1] is reported as 0.22 nM and the Ki [2] is reported as 45 nM.

`Cc1ncc(CC(=O)N[C@H]2CC[C@H](CCN3CCN(c4nocc4C(C)(F)F)C(C)C3)CC2)s1` (some centres unmarked) [Compound I-019] gave a Ki [1] of 0.15 nM and a Ki [2] of 68 nM.

Work on `CCC(F)(F)c1conc1C1(F)CCN(CC[C@H]2CC[C@H](NC(=O)Cc3cnc(C)s3)CC2)CC1` [Compound I-020] yielded a Ki [1] of 0.37 nM and a Ki [2] of 310 nM.

For `Cn1cc2c(C(=O)N[C@H]3CC[C@H](CCN4CCC5(c6nocc6C(C)(F)F)CC5C4)CC3)cccc2n1` (some centres unmarked) [Compound I-021], the Ki [1] was 4.8 nM and the Ki [2] was 1700 nM.

`Cn1cc2c(C(=O)N[C@H]3CC[C@H](CCN4CCC(c5nocc5C(C)(F)F)CC4)CC3)cccc2n1` [Compound I-022] was tested, and the Ki [1] was 0.11 nM and the Ki [2] was 170 nM.

Molecule `CC(=O)c1conc1C1=CCN(CC[C@H]2CC[C@H](NC(=O)c3cccc4nn(C)cc34)CC2)CC1` [Compound I-023] has a Ki [1] of 0.69 nM and a Ki [2] of 1700 nM.

`Cn1cc2c(C(=O)N[C@H]3CC[C@H](CCN4CC=C(c5nocc5C(C)(F)F)CC4)CC3)cccc2n1` [Compound I-024] gave a Ki [1] of 0.082 nM and a Ki [2] of 220 nM.

`Cn1cc2c(C(=O)N[C@H]3CC[C@H](CCN4CCC5CC5(c5cc(C(C)(F)F)on5)C4)CC3)cccc2n1` (some centres unmarked) [Compound I-025] gave a Ki [1] of 2.4 nM and a Ki [2] of 1200 nM.

In the case of `Cn1cc2c(C(=O)N[C@H]3CC[C@](F)(CCN4CCC(c5nocc5C(C)(F)F)CC4)CC3)cccc2n1` [Compound I-026], the Ki [1] is reported as 0.55 nM and the Ki [2] is reported as 250 nM.

For `Cn1cc2c(C(=O)N[C@H]3CC[C@H](CCN4C[C@@H]5C[C@]5(c5cc(C(C)(F)F)on5)C4)CC3)cccc2n1` [Compound I-027], the Ki [1] was 0.3 nM and the Ki [2] was > 1800 nM.

With `Cn1cc2c(C(=O)N[C@H]3CC[C@H](CCN4CC5CC5(c5cc(CF)on5)C4)CC3)cccc2n1` (some centres unmarked) [Compound I-028] the Ki [1] was 1.9 nM.

`Cc1ncc(CC(=O)N[C@H]2CC[C@H](CCN3CC4CC4(c4cc(CF)on4)C3)CC2)s1` (some centres unmarked) [Compound I-029] showed a Ki [1] of 2.2 nM and a Ki [2] of 1100 nM.

For `Cc1cc(C23CC2CN(CC[C@H]2CC[C@H](NC(=O)c4cccc5nn(C)cc45)CC2)C3)no1` (some centres unmarked) [Compound I-030], the Ki [1] was 2.9 nM and the Ki [2] was > 1800 nM.

`Cc1cc(C23CC2CN(CC[C@H]2CC[C@H](NC(=O)Cc4cnc(C)s4)CC2)C3)no1` (some centres unmarked) [Compound I-031] was tested, and the Ki [1] was 3.8 nM and the Ki [2] was > 1800 nM.

With `Cn1cc2c(C(=O)N[C@H]3CC[C@H](CCN4CC5CC5(c5cc(C(F)F)on5)C4)CC3)cccc2n1` (some centres unmarked) [Compound I-032] the Ki [1] was 0.4 nM and the Ki [2] was 200 nM.

In the case of `CC(F)c1cc(C23CC2CN(CC[C@H]2CC[C@H](NC(=O)c4cccc5nn(C)cc45)CC2)C3)no1` (some centres unmarked) [Compound I-033], the Ki [1] is reported as 0.77 nM.

`Cn1cc2c(C(=O)NN3CCC(CCN4C[C@@H]5C[C@]5(c5cc(C(C)(F)F)on5)C4)CC3)cccc2n1` [Compound I-035] gave a Ki [1] of 0.24 nM and a Ki [2] of 870 nM.

`Cc1ncccc1C(=O)N[C@H]1CC[C@H](CCN2C[C@@H]3C[C@]3(c3cc(C(C)(F)F)on3)C2)CC1` [Compound I-036] was tested, and the Ki [1] was 0.25 nM and the Ki [2] was 190 nM.

`CCc1cc([C@]23C[C@H]2CN(CC[C@H]2CC[C@H](NC(=O)c4cccc5nn(C)cc45)CC2)C3)no1` [Compound I-037] showed a Ki [1] of 0.7 nM and a Ki [2] of 290 nM.

`CCn1c(C(=O)N[C@H]2CC[C@H](CCN3C[C@@H]4C[C@]4(c4cc(C(C)(F)F)on4)C3)CC2)cccc1=O` [Compound I-038] showed a Ki [1] of 0.073 nM and a Ki [2] of 91 nM.

With `Cn1ncc(CC(=O)N[C@H]2CC[C@H](CCN3C[C@@H]4C[C@]4(c4cc(C(C)(F)F)on4)C3)CC2)n1` [Compound I-039] the Ki [1] was 0.39 nM and the Ki [2] was 300 nM.

Source: US11447484B2, “Cyclic compound having dopamine D3 receptor antagonistic effect” (Shionogi & Co., Ltd., priority 2018, dated 2022)
